The numbers were not newly measured in patent publication US6916809B2, “Heterocyclic acridone inhibitors of IMPDH enzyme” (Bristol-Myers Squibb Company, priority 2001, dated 2005), which cites them from elsewhere.

Each structure is given as a SMILES string. Like-named read-outs stand apart in the source and are kept apart here.

For data set [1], the system named is antigen-specific T lymphocyte responses. Conditions: for approximate IC10: antigen-induced proliferation, Canelos et al. 2001; for synergistic effect with Rol on inhibition of antigen-induced proliferation: combined with Rol 10^-7 M; for % inhibition of proliferation: synergistic combination of rolipram and MPA.
A further data set deals with IL-2, IL-4, and IFN. Conditions: Rol 10^-7 M, MPA 10^-8 M.
For another data set, the system named is IMPDH types I and II. Conditions: low and high concentrations.

For the compound `CCCC(=O)Nc1ncnc2c1ncn2[C@@H]1O[C@@H]2COP(=O)(O)O[C@H]2[C@H]1OC(=O)CCC` [dibuteryl-cAMP], the “approximate IC10” value in data set [1] is roughly 2e-06 M.
Regarding `COc1c(C)c2c(c(O)c1C/C=C(\C)CCC(=O)O)C(=O)OC2` [MPA, mycophenolic acid], in the data set with IL-2, IL-4, and IFN, the “downregulation in the generation of proinflammatory cytokines” value was “no significant downregulation”. Moreover, in data set [1], the “synergistic effect with Rol on inhibition of antigen-induced proliferation” value is “marked synergistic effect”. Moreover, the “% inhibition of proliferation” value in data set [1] (with deoxyguanosine (reversal), p<0.05) was 35±12%; in data set [1] (without deoxyguanosine) it was 81±16%. Moreover, the “gene expression for IMPDH types I and II” value in the data set with IMPDH types I and II is given as “remained unaffected”.
With `COc1ccc(C2CNC(=O)C2)cc1OC1CCCC1` (stereo not shown) [Rol, 4-[3-(cyclopentyloxy)-4-methoxy-phenyl]-2-pyrrolidinone], the “downregulation in the generation of proinflammatory cytokines” value in the data set on IL-2, IL-4, and IFN was “no significant downregulation”. For the same compound, in data set [1], the “approximate IC10” value is reported as ~10^−7 M. Also, in the data set on IMPDH types I and II, the “gene expression for IMPDH types I and II” value is recorded as “remained unaffected”.
Consider `C=CC[C@@H]1/C=C(\C)C[C@H](C)C[C@H](OC)[C@H]2O[C@@](O)(C(=O)C(=O)N3CCCC[C@H]3C(=O)O[C@H](/C(C)=C/[C@@H]3CC[C@@H](O)[C@H](OC)C3)[C@H](C)[C@@H](O)CC1=O)[C@H](C)C[C@@H]2OC` [tacrolimus], for which the “synergistic effect with Rol on inhibition of antigen-induced proliferation” value in data set [1] is “little or no synergistic effect”.
